# Assays:
# [1] = tested on: fadD gene; test: Change in expression amount of fadD gene in the presence of test substance (real time PCR); format: cell-based, Moraxella sp. KMC4-1; details: for Change in the expression amount of fadD gene: Substance (1) 10 ppm, (2)(3)(5)(6) 100 ppm, (4) 500 ppm; for expression amount of the fadD gene by the microorganisms: summary of Table 13
# Description: (§1) The substances (1) to (7) described below each were added to 4 mL SCD liquid medium (manufactured by NIHON PHARMACEUTICAL CO., LTD). As a control, a medium system not added with any test substance was also prepared. To these medium, one platinum loop of precultured Moraxella sp. KMC4-1 was inoculated and cultured for 24 hours at 35 C while shaking (160 rpm).
# (§2) To the cell liquid cultured for 24 hours, 10 mg of 16-methyloctadecanoic acid was added as a sebaceous dirt component. After culturing again for 6 hours at 35° C., the cells were collected. As a control, a system not added with a sebaceous dirt component was also cultured and cells were collected therefrom.
# (§3) An RNA sample was prepared from the collected cells in the same manner as in the test example 1.
# (§4) Reaction solutions for real time PCR were prepared in the same manner as above, except that, instead of the primer set including the primer containing the oligonucleotide having the base sequence set forth in SEQ ID NO: 13 and the primer containing the oligonucleotide having the base sequence set forth in SEQ ID NO: 14, the primer set described in Tables 11 to 13 was used.
# (§5) The reaction solutions for real time PCR each were subjected to a gene amplification by using an automatic gene amplification thermal cycler DICE Real time system II (manufactured by Takara Bio Inc.), and then the expression amount of each of the fatty acid desaturase gene (the Δ9desaturase gene) and the β oxidation-relating enzyme genes (the fadB gene and the fadD gene) was measured. PCR reaction conditions were 40 cycles of (i) a thermal denaturation reaction at 95° C. for 20 seconds, and (ii) an annealing reaction and an elongation reaction at 60° C. for 30 seconds.
# (§6) By having the gene expression of 16S rRNA as an internal standard, and having the gene expression amount when adding no sebaceous dirt component and no test substance as a reference value, change in expression amount of each gene was calculated relative to the reference value. A sample, in which the expression amount of the gene was ½ times or less the reference value, was rated as “A”; a sample, in which the expression amount of the gene was more than ½ times and ⅔ times or less the reference value, was rated as “B”; and a sample, in which the expression amount of the gene was more than ⅔ times the reference value, was rated as “C”.
# [2] = tested on: Moraxella sp. KMC4-1; test: Sensory evaluation of inhibitory effect on damp-dry malodor on model examination cloth; format: cell-based; details: summary of Table 14
# Description: Subsequently, by using Moraxella sp. KMC4-1, which is one kind of the microorganisms which produce damp-dry malodor-causing substances, sensory evaluation of the inhibitory effect on damp-dry malodor by the test substance and measurement of production amount of 4M3H as one kind of the damp-dry malodor-causing substances were carried out.
# Moraxella sp. KMC4-1 was inoculated as a test microbe onto SCD-LP agar medium (manufactured by Wako Pure Chemical Industries, Ltd.) and cultured for 1 to 2 weeks at room temperature to give a pre-culture plate. Colony surface was scraped off from the pre-culture plate, suspended in 5 mL of physiological saline, and OD600 was adjusted to 1.0 (about 10^8 CFU/mL).
# A cotton jersey cloth obtained in a constant state after sterilization and drying at 25° C., 40% RH (cotton jersey manufactured by Shikisensha Colo., LTD., without silket finish) was cut to a square of 2 cm×2 cm. To the cloth, a solution prepared by dissolving 0.5 mg of 14-methylhexadecanoic acid, as a sebaceous dirt component, in 0.1 mL methanol, was applied. Then, methanol was dried to solid, to give a model examination cloth.
# Methanol solution was prepared for each test substance and applied at 20° C. on the model examination cloth such that applied amount of each test substance was […] per gram of the model examination cloth. It was then dried for 2 hours at room temperature to dry methanol. Thereafter, 0.1 mL of the microbe suspension was coated onto the model examination cloth, and cultured for 24 hours in a petri dish using an incubator at 37° C. with relative humidity of 70%, to obtain a microbe-fixed cloth.
# The sensory test of the model examination cloth was evaluated by a professional panel who can distinguish different subjects based on the damp-dry malodor. A sample, in which an inhibitory effect on damp-dry malodor was confirmed, was rated as “A”; a sample, in which it was difficult to determine the inhibitory effect on damp-dry malodor or a Weak inhibitory effect on damp-dry malodor was confirmed, was rated as “B; and a sample, in which no inhibitory effect on damp-dry malodor was confirmed, was rated as “C”.
# [3] = tested on: Δ9desaturase gene; test: Change in expression amount of Δ9desaturase gene in the presence of test substance (real time PCR); format: cell-based, Moraxella sp. KMC4-1; details: for Change in the expression amount of Δ9desaturase gene: Substance (1) 10 ppm, (2)(3)(5)(6) 100 ppm, (4) 500 ppm
# Description: as §1, §2, §3
# By mixing 2 μL solution of the prepared template diluted ×20 with distilled sterile water, 12.5 μL of TaKaRa SYBR Premix EX Taq (trade name, manufactured by Takara Bio Inc.), 0.5 μL of the primer (des_F1, […]) containing the oligonucleotide having the base sequence set forth in SEQ ID NO: 13, 0.5 μL of the primer (des_R1, […]) containing the oligonucleotide having the base sequence set forth in SEQ ID NO: 14 and 9.5 μL of distilled sterile water, 25 μL reaction solution for real time PCR was prepared.
# as §4, §5, §6
# [4] = tested on: fadB gene; test: Change in expression amount of fadB gene in the presence of test substance (real time PCR); format: cell-based, Moraxella sp. KMC4-1; details: for Change in the expression amount of fadB gene: Substance (1) 10 ppm, (2)(3)(5)(6) 100 ppm, (4) 500 ppm
# Description: as §1, §2, §3, §4, §5, §6
# [5] = primers SEQ ID NO: 13 / 14, 16-methyloctadecanoic acid added, relative to reference without sebaceous dirt component and test substance
Structure (SMILES),Change in the expression amount of fadD gene ([1]; primers SEQ ID NO: 35 / 36),Change in the expression amount of fadD gene ([1]; primers SEQ ID NO: 41 / 42),expression amount of the fadD gene by the microorganisms [1],inhibitory effect on damp-dry malodor [2],"Change in the expression amount of Δ9desaturase gene [3, 5]",Change in the expression amount of Δ9desaturase gene ([3]; primers SEQ ID NO: 15 / 16),Change in the expression amount of Δ9desaturase gene ([3]; primers SEQ ID NO: 17 / 18),Change in the expression amount of Δ9desaturase gene ([3]; primers SEQ ID NO: 19 / 20),Change in the expression amount of Δ9desaturase gene ([3]; primers SEQ ID NO: 21 / 22),Change in the expression amount of Δ9desaturase gene ([3]; primers SEQ ID NO: 23 / 24),expression amount of the Δ9desaturase gene by the microorganisms ([3]; summary of Table 11),Change in the expression amount of fadB gene ([4]; primers SEQ ID NO: 25 / 26),Change in the expression amount of fadB gene ([4]; primers SEQ ID NO: 27 / 28),Change in the expression amount of fadB gene ([4]; primers SEQ ID NO: 29 / 30),Change in the expression amount of fadB gene ([4]; primers SEQ ID NO: 31 / 32),expression amount of the fadB gene by the microorganisms ([4]; summary of Table 12)
CCCCCCCCCC=O [Substance (1)],A (the expression amount of the gene was ½ times or less the reference value),A (the expression amount of the gene was ½ times or less the reference value),decreased,an inhibitory effect on damp-dry malodor was observed,B (the expression amount of the gene was more than ½ times and ⅔ times or less the reference value),B (the expression amount of the gene was more than ½ times and ⅔ times or less the reference value),A (the expression amount of the gene was ½ times or less the reference value),A (the expression amount of the gene was ½ times or less the reference value),B (the expression amount of the gene was more than ½ times and ⅔ times or less the reference value),B (the expression amount of the gene was more than ½ times and ⅔ times or less the reference value),decreased,C (the expression amount of the gene was more than ⅔ times the reference value),C (the expression amount of the gene was more than ⅔ times the reference value),C (the expression amount of the gene was more than ⅔ times the reference value),C (the expression amount of the gene was more than ⅔ times the reference value),
CC(=O)OC(C)(C)Cc1ccccc1 [Substance (2)],A (the expression amount of the gene was ½ times or less the reference value),A (the expression amount of the gene was ½ times or less the reference value),decreased,an inhibitory effect on damp-dry malodor was observed,C (the expression amount of the gene was more than ⅔ times the reference value),B (the expression amount of the gene was more than ½ times and ⅔ times or less the reference value),B (the expression amount of the gene was more than ½ times and ⅔ times or less the reference value),B (the expression amount of the gene was more than ½ times and ⅔ times or less the reference value),C (the expression amount of the gene was more than ⅔ times the reference value),C (the expression amount of the gene was more than ⅔ times the reference value),,A (the expression amount of the gene was ½ times or less the reference value),A (the expression amount of the gene was ½ times or less the reference value),A (the expression amount of the gene was ½ times or less the reference value),A (the expression amount of the gene was ½ times or less the reference value),decreased
O=C[C@H](O)[C@@H](O)[C@H](O)[C@H](O)CO [Substance (5)],C (the expression amount of the gene was more than ⅔ times the reference value),C (the expression amount of the gene was more than ⅔ times the reference value),,,C (the expression amount of the gene was more than ⅔ times the reference value),C (the expression amount of the gene was more than ⅔ times the reference value),C (the expression amount of the gene was more than ⅔ times the reference value),C (the expression amount of the gene was more than ⅔ times the reference value),C (the expression amount of the gene was more than ⅔ times the reference value),C (the expression amount of the gene was more than ⅔ times the reference value),,C (the expression amount of the gene was more than ⅔ times the reference value),C (the expression amount of the gene was more than ⅔ times the reference value),C (the expression amount of the gene was more than ⅔ times the reference value),C (the expression amount of the gene was more than ⅔ times the reference value),

# Source: patent US9809861B2, “Method of evaluating inhibitory effect on damp-dry malodor” (Kao Corporation, priority 2012, dated 2017)
